Activity calls are given as the source filed them. The calls are words filed in the database; no cut-off is given here.
Legend:
[1] = tested on: Protein kinase C eta type (Homo sapiens), P24723 [UNDEFINED MUTATION]; assay: Inhibition of recombinant human PKCeta V108L/G109R/L392Q mutant (2 to end residues) assessed as residual activity at 10 uM using ERMRPRKRQGSVRRRV as substrate measured after 40 mins in presence of [gamma33P]ATP by scintillation counting method
[2] = molecular target: Myosin-IIIb (Homo sapiens) (UniProt Q8WXR4); assay: Inhibition of recombinant full-length human MYO3B (1 to 326 residues) assessed as residual activity at 10 uM using RLGRDKYKTLRQIRQ as substrate measured after 40 mins in presence of [gamma33P]ATP by scintillation counting method
[3] = molecular target: Cyclin-dependent kinase-like 4 (Homo sapiens) (UniProt Q5MAI5); assay: Inhibition of human CDKL4 assessed as residual activity at 10 uM by radiometric method
[4] = molecular target: Testis-specific serine/threonine-protein kinase 4 (Homo sapiens) (UniProt Q6SA08); assay: Inhibition of recombinant full-length human TSSK4 assessed as residual activity at 10 uM using KKLNRTLSFAEPG as substrate measured after 40 mins in presence of [gamma33P]ATP by scintillation counting method
[5] = tested on: Tyrosine-protein kinase receptor UFO (Homo sapiens), P30530 [Q764R]; assay: Inhibition of recombinant human AXL Q764R mutant (473 to end residues) assessed as residual activity at 10 uM using KKSRGDYMTMQIG as substrate measured after 40 mins in presence of [gamma33P]ATP by scintillation counting method
[6] = molecular target: Calcium/calmodulin-dependent protein kinase type II subunit delta (Homo sapiens) (UniProt Q13557); assay: Inhibition of recombinant full-length human CaMK2delta assessed as residual activity at 10 uM using calmodulin as substrate measured after 40 mins in presence of [gamma33P]ATP by scintillation counting method
[7] = molecular target: Dual specificity protein kinase CLK1 (Homo sapiens) (UniProt P49759); assay: Inhibition of recombinant human CLK1 (130 to end residues) assessed as residual activity at 10 uM using ERMRPRKRQGSVRRRV as substrate measured after 40 mins in presence of [gamma33P]ATP by scintillation counting method
HCT-116 = assay: Induction of apoptosis in human HCT116 cells assessed as increase in Bax expression up to 200 nM measured after 48 hrs by Western blot analysis; format: functional, cell-based
[8] = molecular target: Myotonin-protein kinase (Homo sapiens) (UniProt Q09013); assay: Inhibition of recombinant human DMPK (1 to 549 residues) assessed as residual activity at 10 uM using KKSRGDYMTMQIG as substrate measured after 40 mins in presence of [gamma33P]ATP by scintillation counting method
[9] = molecular target: Wee1-like protein kinase (Homo sapiens) (UniProt P30291); assay: Inhibition of human Wee1 (214 to end residues) using LSNLYHQGKFLQTFCGSPLYRRR as substrate measured after 40 mins in presence of [gamma33P]ATP by scintillation counting method; parameters: scale not given: the % may be the effect or the level left

Sequence of Protein kinase C eta type (Homo sapiens), P24723 [UNDEFINED MUTATION] (P24723 whole entry, looked up, stated change not applied, the tested form may be a part): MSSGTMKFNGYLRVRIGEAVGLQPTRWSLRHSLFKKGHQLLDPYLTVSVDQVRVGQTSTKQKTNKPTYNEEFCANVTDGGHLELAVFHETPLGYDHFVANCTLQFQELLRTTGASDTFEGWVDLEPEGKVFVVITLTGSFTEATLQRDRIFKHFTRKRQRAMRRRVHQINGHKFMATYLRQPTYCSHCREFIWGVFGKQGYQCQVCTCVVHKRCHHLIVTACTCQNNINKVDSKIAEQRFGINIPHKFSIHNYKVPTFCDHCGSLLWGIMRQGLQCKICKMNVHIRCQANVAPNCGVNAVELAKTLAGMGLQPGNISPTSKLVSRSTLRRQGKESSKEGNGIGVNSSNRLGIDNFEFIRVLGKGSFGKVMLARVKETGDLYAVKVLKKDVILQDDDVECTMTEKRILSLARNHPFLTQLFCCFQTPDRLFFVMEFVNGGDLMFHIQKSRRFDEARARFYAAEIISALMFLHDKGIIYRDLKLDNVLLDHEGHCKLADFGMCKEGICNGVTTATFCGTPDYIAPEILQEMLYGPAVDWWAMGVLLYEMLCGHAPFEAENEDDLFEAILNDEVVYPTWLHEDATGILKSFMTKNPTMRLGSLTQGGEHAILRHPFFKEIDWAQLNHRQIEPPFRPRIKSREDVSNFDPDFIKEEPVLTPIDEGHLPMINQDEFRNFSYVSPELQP
Sequence of Dual specificity protein kinase CLK1 (Homo sapiens) (P49759 whole entry, looked up): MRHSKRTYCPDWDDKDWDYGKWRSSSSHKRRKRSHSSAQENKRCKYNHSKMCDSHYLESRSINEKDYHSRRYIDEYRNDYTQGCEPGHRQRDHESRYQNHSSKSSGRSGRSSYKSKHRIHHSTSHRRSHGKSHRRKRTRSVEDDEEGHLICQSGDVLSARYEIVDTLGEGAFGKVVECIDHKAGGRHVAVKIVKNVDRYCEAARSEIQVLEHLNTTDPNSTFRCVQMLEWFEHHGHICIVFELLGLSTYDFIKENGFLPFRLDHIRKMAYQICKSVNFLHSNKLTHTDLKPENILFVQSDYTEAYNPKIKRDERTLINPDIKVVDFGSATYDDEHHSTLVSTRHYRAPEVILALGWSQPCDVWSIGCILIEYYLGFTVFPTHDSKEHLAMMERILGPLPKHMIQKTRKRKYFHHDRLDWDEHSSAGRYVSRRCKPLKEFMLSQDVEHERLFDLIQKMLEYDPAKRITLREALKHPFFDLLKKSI
Sequence of Testis-specific serine/threonine-protein kinase 4 (Homo sapiens) (Q6SA08 whole entry): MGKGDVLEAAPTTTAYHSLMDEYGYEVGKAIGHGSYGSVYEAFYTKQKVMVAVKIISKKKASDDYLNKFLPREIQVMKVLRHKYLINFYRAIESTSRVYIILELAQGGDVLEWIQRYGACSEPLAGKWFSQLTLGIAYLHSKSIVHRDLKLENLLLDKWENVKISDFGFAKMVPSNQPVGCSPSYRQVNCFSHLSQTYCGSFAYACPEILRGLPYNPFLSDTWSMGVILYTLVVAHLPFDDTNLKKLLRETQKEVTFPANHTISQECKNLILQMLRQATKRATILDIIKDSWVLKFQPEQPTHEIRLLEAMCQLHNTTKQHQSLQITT
Sequence of Cyclin-dependent kinase-like 4 (Homo sapiens) (Q5MAI5 whole entry): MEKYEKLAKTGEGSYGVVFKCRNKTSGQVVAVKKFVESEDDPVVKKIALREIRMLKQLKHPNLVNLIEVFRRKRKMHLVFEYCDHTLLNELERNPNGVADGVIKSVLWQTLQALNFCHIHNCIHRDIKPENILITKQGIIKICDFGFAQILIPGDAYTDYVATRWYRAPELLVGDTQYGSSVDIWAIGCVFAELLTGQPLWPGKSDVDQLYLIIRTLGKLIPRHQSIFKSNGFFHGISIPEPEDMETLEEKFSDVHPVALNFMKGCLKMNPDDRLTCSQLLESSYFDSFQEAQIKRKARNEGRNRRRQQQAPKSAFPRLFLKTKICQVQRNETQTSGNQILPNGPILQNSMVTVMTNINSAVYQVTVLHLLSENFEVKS
Sequence of Tyrosine-protein kinase receptor UFO (Homo sapiens), P30530 [Q764R] (P30530 whole entry Q764R): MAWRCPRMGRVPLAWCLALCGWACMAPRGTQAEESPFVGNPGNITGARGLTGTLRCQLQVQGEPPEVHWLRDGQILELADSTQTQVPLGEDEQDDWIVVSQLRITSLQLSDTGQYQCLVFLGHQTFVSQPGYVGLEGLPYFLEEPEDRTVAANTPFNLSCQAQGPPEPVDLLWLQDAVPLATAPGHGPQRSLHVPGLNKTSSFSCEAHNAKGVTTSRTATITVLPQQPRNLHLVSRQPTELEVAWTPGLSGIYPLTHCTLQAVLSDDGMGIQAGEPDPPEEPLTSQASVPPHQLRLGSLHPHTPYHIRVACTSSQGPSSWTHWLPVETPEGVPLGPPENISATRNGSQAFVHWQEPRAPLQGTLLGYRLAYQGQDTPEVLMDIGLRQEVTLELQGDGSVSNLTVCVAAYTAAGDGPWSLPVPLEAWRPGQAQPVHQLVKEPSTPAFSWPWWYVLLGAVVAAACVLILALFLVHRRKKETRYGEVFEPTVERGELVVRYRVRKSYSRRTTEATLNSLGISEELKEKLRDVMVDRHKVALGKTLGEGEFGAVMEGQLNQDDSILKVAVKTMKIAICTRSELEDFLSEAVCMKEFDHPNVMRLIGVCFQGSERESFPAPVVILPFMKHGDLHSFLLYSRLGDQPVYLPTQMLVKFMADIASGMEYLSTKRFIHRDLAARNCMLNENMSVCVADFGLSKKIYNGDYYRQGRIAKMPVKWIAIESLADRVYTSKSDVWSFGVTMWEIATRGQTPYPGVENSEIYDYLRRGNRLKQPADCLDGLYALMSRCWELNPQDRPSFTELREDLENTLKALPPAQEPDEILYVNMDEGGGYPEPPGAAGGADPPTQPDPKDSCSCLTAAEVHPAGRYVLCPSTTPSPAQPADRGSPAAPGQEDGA
Sequence of Myosin-IIIb (Homo sapiens) (Q8WXR4 whole entry, the tested form may be a part): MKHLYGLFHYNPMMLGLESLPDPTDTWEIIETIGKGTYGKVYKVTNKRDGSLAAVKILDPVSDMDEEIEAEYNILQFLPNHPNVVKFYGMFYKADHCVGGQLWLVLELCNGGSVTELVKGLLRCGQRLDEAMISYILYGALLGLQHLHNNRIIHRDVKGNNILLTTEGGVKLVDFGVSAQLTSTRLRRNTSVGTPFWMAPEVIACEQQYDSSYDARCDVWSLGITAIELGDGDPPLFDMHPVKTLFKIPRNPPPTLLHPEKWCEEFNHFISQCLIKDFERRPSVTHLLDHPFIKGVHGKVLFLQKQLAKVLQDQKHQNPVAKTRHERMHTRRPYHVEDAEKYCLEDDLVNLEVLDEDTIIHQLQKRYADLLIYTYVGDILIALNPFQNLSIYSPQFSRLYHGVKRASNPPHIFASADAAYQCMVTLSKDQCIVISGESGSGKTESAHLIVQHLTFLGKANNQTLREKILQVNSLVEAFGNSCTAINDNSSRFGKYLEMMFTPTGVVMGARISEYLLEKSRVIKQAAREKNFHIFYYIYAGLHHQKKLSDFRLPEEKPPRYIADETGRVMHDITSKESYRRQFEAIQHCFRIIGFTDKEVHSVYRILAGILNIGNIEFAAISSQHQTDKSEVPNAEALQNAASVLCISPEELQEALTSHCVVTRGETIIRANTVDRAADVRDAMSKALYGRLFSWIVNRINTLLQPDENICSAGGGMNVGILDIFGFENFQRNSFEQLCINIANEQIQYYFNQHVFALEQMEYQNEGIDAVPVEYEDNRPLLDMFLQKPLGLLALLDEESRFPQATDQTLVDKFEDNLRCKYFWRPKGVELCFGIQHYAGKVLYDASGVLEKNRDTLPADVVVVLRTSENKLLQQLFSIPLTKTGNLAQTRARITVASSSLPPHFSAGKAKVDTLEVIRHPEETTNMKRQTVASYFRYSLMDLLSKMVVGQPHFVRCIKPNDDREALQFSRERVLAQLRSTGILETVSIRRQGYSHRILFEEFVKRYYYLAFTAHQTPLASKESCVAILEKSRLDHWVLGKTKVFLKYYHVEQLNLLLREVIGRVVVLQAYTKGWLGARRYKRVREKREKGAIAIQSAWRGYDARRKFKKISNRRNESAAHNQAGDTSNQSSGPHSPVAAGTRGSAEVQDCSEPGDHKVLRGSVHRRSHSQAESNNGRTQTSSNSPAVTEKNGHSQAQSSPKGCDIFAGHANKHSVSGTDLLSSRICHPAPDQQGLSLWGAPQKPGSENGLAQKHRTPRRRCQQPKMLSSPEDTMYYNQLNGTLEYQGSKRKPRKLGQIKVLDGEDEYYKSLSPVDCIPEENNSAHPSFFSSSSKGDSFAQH
Sequence of Calcium/calmodulin-dependent protein kinase type II subunit delta (Homo sapiens) (Q13557 whole entry): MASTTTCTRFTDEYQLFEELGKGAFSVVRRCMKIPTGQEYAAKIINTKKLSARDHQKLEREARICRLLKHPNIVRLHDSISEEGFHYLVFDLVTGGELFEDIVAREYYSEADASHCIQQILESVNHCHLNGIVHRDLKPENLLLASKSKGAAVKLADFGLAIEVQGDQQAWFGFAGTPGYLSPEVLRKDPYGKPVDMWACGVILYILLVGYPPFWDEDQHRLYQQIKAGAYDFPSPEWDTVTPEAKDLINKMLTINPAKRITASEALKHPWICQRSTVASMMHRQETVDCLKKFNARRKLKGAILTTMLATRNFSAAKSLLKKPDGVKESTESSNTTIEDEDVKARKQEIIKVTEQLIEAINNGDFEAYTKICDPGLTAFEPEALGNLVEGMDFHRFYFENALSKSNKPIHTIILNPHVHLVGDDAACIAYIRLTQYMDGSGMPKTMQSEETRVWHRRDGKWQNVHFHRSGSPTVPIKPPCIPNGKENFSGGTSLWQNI

Work on `Cc1cc(C)c(CNc2nc(Cl)nc3c2ncn3C2CCCC2)c(=O)[nH]1` yielded an Activity [1] of 98.5%, an Activity [2] of 111% and an Activity [3] of 116%. For the same compound, the Activity [4] was 138%, the Activity [5] was 107% and the Activity [6] was 120%. The Activity [7] was 108%, the Activity (HCT-116) was “Active” and the Activity [8] was 104%. The Activity [9] was 84.5%.
